Drawing on patent US20250197372A1 (priority 2020, published 2025), this text covers IC50 for ten compounds.

For experiment [1], the target named is rat maltase (partially purified alpha-glucosidase from intestinal rat powder). Kind of experiment: Intestinal alpha-glucosidase assay, maltose substrate (Glucose GO Kit). The experiment is classed as biochemical. In a few lines:
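First step: 60 min, 37 °C, compound with partially purified rat intestinal alpha-glucosidase. Next, maltose or sucrose for 30 min at 37 °C, ended at 90 °C for 5 min. Glucose quantified enzymatically; concentration–inhibition data fitted 4-PL for IC50.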

The target in experiment [2] is T1, recombinant human GBA (beta-glucocerebrosidase) (Homo sapiens, UniProt P04062).
T1 sequence (P04062 40-536): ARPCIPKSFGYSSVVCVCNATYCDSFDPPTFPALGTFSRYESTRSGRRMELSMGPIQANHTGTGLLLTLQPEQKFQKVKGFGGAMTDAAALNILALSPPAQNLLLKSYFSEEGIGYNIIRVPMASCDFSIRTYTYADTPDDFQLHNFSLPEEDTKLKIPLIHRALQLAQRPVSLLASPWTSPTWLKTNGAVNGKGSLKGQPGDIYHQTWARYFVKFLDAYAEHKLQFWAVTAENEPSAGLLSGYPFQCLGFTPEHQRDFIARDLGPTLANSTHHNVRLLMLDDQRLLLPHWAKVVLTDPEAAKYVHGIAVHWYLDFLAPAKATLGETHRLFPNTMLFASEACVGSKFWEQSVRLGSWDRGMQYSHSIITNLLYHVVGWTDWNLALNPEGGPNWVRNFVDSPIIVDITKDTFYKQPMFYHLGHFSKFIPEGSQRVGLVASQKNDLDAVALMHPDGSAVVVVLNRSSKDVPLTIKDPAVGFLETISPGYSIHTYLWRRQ
Kind of experiment: Beta-glucocerebrosidase (GBA, glucosylceramidase) assay (4-methylumbelliferyl-beta-D-pyranoside substrate, fluorescence). The experiment is classed as biochemical. An outline of the steps: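 Recombinant human GBA preincubated with compound dilutions 60 min at 37 °C, then 4-methylumbelliferyl-beta-D-pyranoside added for 60 min at 37 °C. Stopped at pH 10 (glycine/NaOH); fluorescence ex 365/em 440 nm. IC50 from 4-PL fit of inhibition relative to untreated enzyme.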

One may read the IC50 as the concentration needed to halve the response being measured. As for `Cc1nc2cc(-c3ncccn3)ccc2n1CCCCCCN1C[C@H](O)[C@@H](O)[C@H](O)[C@H]1CO` [Compound 1339, (2R,3R,4R,5S)-2-(hydroxymethyl)-1-{6-[2-methyl-5-(pyrimidin-2-yl)-1H-1,3-benzodiazol-1-yl]hexyl}piperidine-3,4,5-triol], the IC50 in experiment [1] was 14 nM; in experiment [2], 626 nM.
Consider `COc1cc(-c2ncco2)ccc1NCCCCCCN1C[C@H](O)[C@@H](O)[C@H](O)[C@H]1CO` [Compound 1207, (2R,3R,4R,5S)-2-(hydroxymethyl)-1-(6-{[2-methoxy-4-(1,3-oxazol-2-yl)phenyl]amino}hexyl)piperidine-3,4,5-triol], for which the IC50 turned out to be 7 nM in experiment [1] and 1680 nM in experiment [2].
As to `[N-]=[N+]=Nc1ccc(NCCc2nccc(CCN3C[C@H](O)[C@@H](O)[C@H](O)[C@H]3CO)n2)c([N+](=O)[O-])c1` [Compound 1188, (2R,3R,4R,5S)-1-[2-(2-{2-[(4-azido-2-nitrophenyl)amino]ethyl}pyrimidin-4-yl)ethyl]-2-(hydroxymethyl)piperidine-3,4,5-triol], the values for the IC50 in experiment [1] and in experiment [2] were 164 nM and 9050 nM, respectively.
The matching figures for `COc1cc(NCCc2ccc(CCN3C[C@H](O)[C@@H](O)[C@H](O)[C@H]3CO)cc2)cc(C2=CCOCC2)c1` [Compound 1154, (2R,3R,4R,5S)-1-{2-[4-(2-{[3-(3,6-dihydro-2H-pyran-4-yl)-5-methoxyphenyl]amino}ethyl)phenyl]ethyl}-2-(hydroxymethyl)piperidine-3,4,5-triol]: 624 nM and 1700 nM.
For `CS(=O)(=O)c1cc(NCc2cccc(CN3C[C@H](O)[C@@H](O)[C@H](O)[C@H]3CO)c2)cc(-c2cccnn2)c1` [Compound 1040, (2R,3R,4R,5S)-2-(hydroxymethyl)-1-{[3-({[3-methanesulfonyl-5-(pyridazin-3-yl)phenyl]amino}methyl)phenyl]methyl}piperidine-3,4,5-triol] the same measures were 38 nM and over 100000 nM.
The matching figures for `COc1cc(C#N)cc(NCCc2ccc(CCN3C[C@H](O)[C@@H](O)[C@H](O)[C@H]3CO)cc2)c1` [Compound 1133, 3-methoxy-5-{[2-(4-{2-[(2R,3R,4R,5S)-3,4,5-trihydroxy-2-(hydroxymethyl)piperidin-1-yl]ethyl}phenyl)ethyl]amino}benzonitrile]: 97 nM and 4500 nM.
Regarding `CS(=O)(=O)c1cc(NCCCCCCN2C[C@H](O)[C@@H](O)[C@H](O)[C@H]2CO)cc(-c2ncccn2)c1` [Compound 1128, (2R,3R,4R,5S)-2-(hydroxymethyl)-1-(6-{[3-methanesulfonyl-5-(pyrimidin-2-yl)phenyl]amino}hexyl)piperidine-3,4,5-triol], the IC50 is under 1 nM in experiment [1] and 5200 nM in experiment [2].
For `OC[C@@H]1[C@@H](O)[C@H](O)[C@@H](O)CN1CCc1ccc(CCNc2cc(Cl)cc(-c3ncon3)c2)cc1` [Compound 1113, (2R,3R,4R,5S)-1-{2-[4-(2-{[3-chloro-5-(1,2,4-oxadiazol-3-yl)phenyl]amino}ethyl)phenyl]ethyl}-2-(hydroxymethyl)piperidine-3,4,5-triol] the same measures were 20 nM and 6290 nM.
Consider `COc1cc(CN2CCCO2)cc(NCCCCCCN2C[C@H](O)[C@@H](O)[C@H](O)[C@H]2CO)c1` [Compound 1182, (2R,3R,4R,5S)-2-(hydroxymethyl)-1-[6-({3-methoxy-5-[(1,2-oxazolidin-2-yl)methyl]phenyl}amino)hexyl]piperidine-3,4,5-triol], for which the IC50 in experiment [1] was found to be 26 nM; in experiment [2], 6130 nM.
For `OC[C@@H]1[C@@H](O)[C@H](O)[C@@H](O)CN1CCc1ccc(CCNc2cc(Cl)cc(-c3ccco3)c2)cc1` [Compound 1159, (2R,3R,4R,5S)-1-{2-[4-(2-{[3-chloro-5-(furan-2-yl)phenyl]amino}ethyl)phenyl]ethyl}-2-(hydroxymethyl)piperidine-3,4,5-triol] the same measures were 25 nM and 1050 nM.
